Molecular target: T1, human GOAT (Homo sapiens, UniProt Q96T53)
T1 construct: expressed in transfected cells; host or cells: HEK293 (Hek293 hGOAT/PPGhrl Clone #1B8), stably transfected
T1 sequence (Q96T53 1-435): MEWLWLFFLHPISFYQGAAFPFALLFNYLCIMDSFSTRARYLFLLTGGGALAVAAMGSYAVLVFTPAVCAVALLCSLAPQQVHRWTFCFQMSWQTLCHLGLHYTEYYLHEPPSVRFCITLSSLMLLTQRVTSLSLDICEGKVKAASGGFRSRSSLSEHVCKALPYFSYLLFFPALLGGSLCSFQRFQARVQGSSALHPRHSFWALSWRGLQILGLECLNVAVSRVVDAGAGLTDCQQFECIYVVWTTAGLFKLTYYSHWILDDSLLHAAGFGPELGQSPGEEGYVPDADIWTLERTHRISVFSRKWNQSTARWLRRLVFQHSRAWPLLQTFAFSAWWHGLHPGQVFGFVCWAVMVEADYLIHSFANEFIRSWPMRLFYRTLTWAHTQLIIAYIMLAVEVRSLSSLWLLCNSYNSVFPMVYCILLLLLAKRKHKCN
Assay: Determination of hGOAT activity in HEK293 cells after incubation with test compound (acyl-ghrelin ELISA)
Format: cell-based
Conditions: HEK293 cells stably transfected with preproghrelin and human GOAT; octanoate-BSA 100 μM, 5 hours incubation; acyl-ghrelin in medium by ELISA; 8 compound concentrations
Procedure: Determination of hGOAT Activity in HEK293 Cells after Incubation with Test Compound
HEK293 cells stably transfected with two expression vectors, one coding for preproghrelin cDNA and a second for the expression of human GOATcDNA are used as a cellular model. After feeding the cells with octanoic acid for 5 hours, acyl-ghrelin is measured in cell culture medium by an ELISA procedure.
Cellline: Hek293 hGOAT/PPGhrl Clone #1B8 Sodium octanoate, Sigma, Cat.-No. C5038
BD Poly-D-Lysin 384-well Plates, black-clear polystyrene BD Bioscience Cat.-No. […] ELISA human acylated Ghrelin Kit purchased from Bertin Pharman (detailed composition of buffers e.g. wash-puffer, ELISA buffer not known) All further reagents used were of highest analytical grade available.
Cells are plated with a density of 5000 cells/well in 384-well poly-D-lysin plates and incubated for 1 day at 37° C., 5% CO2 in DMEM medium, 10% FCS, 1×NEAA, Puromycin (0.5 μg/ml) and G418 (1 mg/ml). Then the medium is changed to a identical medium without FCS and containing Octanoate-BSA (final concentration 100 μM each) and compound in DMSO (final DMSO concentration 0.3%). After incubation for 5 hours acylghrelin in the medium is measured by ELISA.
The medium sample is diluted 1:25 in Elisa buffer, a 25 μl aliquot is transferred to a 384-well ELISA plate previously washed 4 times with 100 μL wash buffer, and 25 μl tracer-solution is added. After incubation overnight (˜20 h) at 4° C. temperature the plate is washed 4 times with 100 μl wash-buffer per well. Finally 50 μl Ellman's reagent is added to each well and the plate is incubated in the dark for 20 minutes. The absorbance is measured at 405 nm in an Envision multilabel reader and the amount of acylated ghrelin is calculated according to a acylated ghrelin standard curve provided in the same plate.
The analysis of the data is performed by calculation of the percentage of acyl-ghrelin produced in the presence of test compound compared to the amount of acyl-ghrelin produced in the vehicle control samples. An inhibitor of the GOAT enzyme will give values between 100% CTL (no inhibition) and 0% CTL (complete inhibition).
IC50 values are calculated with Assay Explorer or other suited software based on curve fitting of results of 8 different compound concentrations.

Row | IC50 [nM] | Compound
1 | 5.7 | Cc1nc2nonc2c(N)c1CN1CCN(C(=O)C(F)(F)F)CC1 [Example 2.1, 1-[4-({7-Amino-5-methyl-[1,2,5]oxadiazolo[3,4-b]pyridin-6-yl}methyl)piperazin-1-yl]-2,2,2-trifluoroethan-1-one]
2 | 0.64 | Cc1nc2nonc2c(N)c1CN1CCN(S(=O)(=O)C(F)(F)F)CC1 [Example 2.2]
3 | 4.2 | Cc1nc2nonc2c(N)c1CN1CCN(C(=O)C2CC2)CC1 [Example 2.3]
4 | 1.8 | Cc1nc2nonc2c(N)c1CN1CCN(S(=O)(=O)C2CC2)CC1 [Example 2.4]
5 | 6.5 | COC(=O)N1CCN(Cc2c(C)nc3nonc3c2N)CC1 [Example 2.5]
6 | 0.49 | Cc1nc2nonc2c(N)c1CN1CCN(S(=O)(=O)C(F)F)CC1 [Example 2.6]
7 | 7.4 | Cc1nc2nonc2c(N)c1CN1CCCC(F)(F)C1 [Example 3.1, 6-(3,3-Difluoro-piperidin-1-ylmethyl)-5-methyl-[1,2,5]oxadiazolo[3,4-b]pyridin-7-ylamine]
8 | 2.2 | Cc1nc2nonc2c(N)c1CN1CCC(F)(F)CC1 [Example 3.2]
9 | 1.7 | Cc1nc2nonc2c(N)c1CN1CCCC(C(F)(F)F)C1 (centres unmarked) [Example 3.3]
10 | 1.3 | Cc1nc2nonc2c(N)c1CN1CCC(C(F)(F)F)CC1 [Example 3.4]
11 | 4 | Cc1nc2nonc2c(N)c1CN1CCOC(C)(c2ccc(F)cc2)C1 (centres unmarked) [Example 3.5]

More lines, now with the values behind:

Row | Compound | IC50 [nM]
12 | Cc1nc2nonc2c(N)c1CN1CCC(C(F)F)CC1 [Example 1.1, 6-{[4-(Difluoromethyl)piperidin-1-yl]methyl}-5-methyl-[1,2,5]oxadiazolo[3,4-b]pyridin-7-amine] | 1.3
13 | Cc1nc2nonc2c(N)c1CN1CCC(C#N)CC1 [Example 1.2] | 3.6
14 | Cc1nc2nonc2c(N)c1CN1CCC(S(C)(=O)=O)CC1 [Example 1.3] | 4.1
15 | Cc1nc2nonc2c(N)c1CN1CCC(OC(F)(F)F)CC1 [Example 1.4] | 0.56
16 | Cc1nc2nonc2c(N)c1CN1CCN(C(=O)OC(C)(C)C)CC1 [Example 1.5, tert-Butyl 4-({7-amino-5-methyl-[1,2,5]oxadiazolo[3,4-b]pyridin-6-yl}methyl)piperazine-1-carboxylate] | 0.43
17 | Cc1nc2nonc2c(N)c1CN1CC(C(F)(F)F)C1 [Example 1.6] | 1.9
18 | Cc1nc2nonc2c(N)c1CN1CCC(C(F)(F)F)C1 (centres unmarked) [Example 1.7] | 0.56
19 | Cc1nc2nonc2c(N)c1CN1CCC(c2cccc(C(F)(F)F)c2)C1 (centres unmarked) [Example 1.8] | 1.4
20 | Cc1nc2nonc2c(N)c1CN1CCC(O)(C(F)(F)F)C1 (centres unmarked) [Example 1.9] | 1.1
21 | Cc1nc2nonc2c(N)c1CN1CCC(C(C)(C)O)C1 (centres unmarked) [Example 1.11] | 5
22 | Cc1nc2nonc2c(N)c1CN1CCC(F)(F)C1 [Example 1.12] | 7
23 | Cc1nc2nonc2c(N)c1CN1CCN(S(C)(=O)=O)CC1 [Example 1.13] | 5.2
